Where two headings read alike, the source gives them in different places.
Experiments:
5-LOX [1] = target: T1, 5-LOX (Homo sapiens, UniProt P09917); set-up: made in house; host or cells: E. coli Bl21 (DE3); conditions: supplementary csv; # published in ref Pein et al.4; read-out: IC50 (5-LOX enzyme); cited from earlier work
T1 sequence (P09917 1-674): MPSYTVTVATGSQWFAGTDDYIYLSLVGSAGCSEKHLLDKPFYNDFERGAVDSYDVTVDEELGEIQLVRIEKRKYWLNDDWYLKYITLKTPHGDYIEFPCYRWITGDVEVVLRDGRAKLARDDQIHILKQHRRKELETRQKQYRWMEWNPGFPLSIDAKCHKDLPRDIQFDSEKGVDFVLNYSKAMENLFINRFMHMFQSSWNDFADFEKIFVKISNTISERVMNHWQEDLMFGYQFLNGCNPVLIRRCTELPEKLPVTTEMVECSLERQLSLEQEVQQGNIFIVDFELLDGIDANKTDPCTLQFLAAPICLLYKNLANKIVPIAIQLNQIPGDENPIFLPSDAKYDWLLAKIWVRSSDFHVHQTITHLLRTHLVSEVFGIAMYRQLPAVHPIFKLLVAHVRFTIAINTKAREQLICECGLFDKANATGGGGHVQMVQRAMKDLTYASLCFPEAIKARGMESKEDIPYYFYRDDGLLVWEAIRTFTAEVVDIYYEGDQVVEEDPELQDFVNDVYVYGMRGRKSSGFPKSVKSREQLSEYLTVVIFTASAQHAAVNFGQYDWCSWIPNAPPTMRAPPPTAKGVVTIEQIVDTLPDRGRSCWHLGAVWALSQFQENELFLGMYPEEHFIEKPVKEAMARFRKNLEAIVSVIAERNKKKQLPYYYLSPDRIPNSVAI

5-LOX [2] = target: T1, 5-LOX; conditions: supplementary csv; # published in ref Pein et al.4; read-out: IC50 (5-LOX PMNL); cited from earlier work
5-LOX [3] = target: T1, 5-LOX; test: 5-LOX product formation in activated PMNL; conditions: for IC50: read-out: 5-LOX PMNL IC50, 5-LOX product formation in activated PMNL, mean ± SEM;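 as to all read-outs here: freshly isolated human PMNL in PBS pH 7.4 plus glucose, preincubated 10 min at 37 °C with compound, 5-LOX products (all-trans LTB4 isomers, 5-HETE) quantified by RP-HPLC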
Method: These volunteers regularly donated blood (every 8–12 weeks) and were physically inspected by a clinician.
Erythrocytes were removed by dextran sedimentation and hypotonic lysis. PMNL were obtained from the cell pellet and platelets from the supernatant.
Freshly isolated PMNL (5 × 10^6) suspended in PBS pH 7.4 with 1 mg/mL glucose or freshly withdrawn human whole blood were preincubated with the test compounds for 10 min (or as indicated) at 37 °C. […] The reaction was stopped with an equal volume of methanol.

5-LOX [4] = target: T1, 5-LOX; test: Cell-free 5-LOX activity (isolated human recombinant enzyme)
Method: Human recombinant 5-LOX was expressed in E. coli Bl21 (DE3) cells that were transformed with pT3–5LOX (wt 5-LOX), 5-LOX_3W (triple mutation of Trp102Ala/Trp13Ala/Trp75Ala), or 5-LOX_R (single mutant of the Arg101Asp plasmid) and purified on an ATP-agarose column (Econo-Pac, Bio-Rad, Hercules, CA) by affinity chromatography.[6],[75]
Purified 5-LOX (0.5 μg in PBS pH 7.4 containing 1 mM EDTA and 1 mM ATP) was preincubated with the vehicle (DMSO) or test compounds for 10 min and prewarmed at 37 °C.

[5] = PMNL, read-out: 5-LOX PMNL residual activity at 3 µM (Table S1)
[6] = read-out: 5-LOX enzyme residual activity at 1 µM (Table S1)
[7] = read-out: 5-LOX enzyme IC50, isolated human 5-LOX, cell-free, mean ± SEM
[8] = read-out: 5-LOX enzyme residual activity at 1 μM
[9] = PMNL, read-out: 5-LOX PMNL residual activity at 3 μM

| remaining activity at 3 µM (5-LOX [3]; [5]) | remaining activity at 1 µM (5-LOX [4]; [6]) | IC50 (5-LOX [4]) | Compound | IC50 (5-LOX [1]) | IC50 (5-LOX [2]) | remaining activity at 1 µM (5-LOX [3]; PMNL, read-out: 5-LOX PMNL residual activity at 1 μM (cells marked b)) | IC50 (5-LOX [3]) | IC50 (5-LOX [4]; [7]) | remaining activity at 1 µM (5-LOX [4]; [8]) | remaining activity at 3 µM (5-LOX [3]; [9]) |
| --- | --- | --- | --- | --- | --- | --- | --- | --- | --- | --- |
| 2 ± 0.2% | 0.3 ± 0.2% |  | C/C(=C/CC/C(C)=C/CC/C(C)=C/CC[C@]1(C)CCc2cc(O)cc(C)c2O1)CO [Compound 10e, δ-(Z)-deoxyamplexichromanol] | 140 ± 30 nM | 220 ± 40 nM |  |  |  |  |  |
| 7.7 ± 1.3% | 0.2 ± 0.1% |  | C/C(=C\CC/C(C)=C/CC/C(C)=C/CC[C@]1(C)CCc2c(C)c(O)cc(C)c2O1)CO [Compound 10b] | 90 ± 30 nM | 380 ± 90 nM |  |  |  |  |  |
| 22.6 ± 2.4% | 2.1 ± 0.3% |  | Cc1cc(O)cc2c1O[C@](C)(CCCC(C)CCCC(C)CCCC(C)CO)CC2 (some centres unmarked) [Compound 9b] | 120 ± 40 nM | 540 ± 180 nM |  |  |  |  |  |
| 79.6 ± 6.1% | 32.8 ± 9% |  | Cc1cc(O)c(C)c2c1O[C@](C)(CCC[C@H](C)CCC[C@H](C)CCCC(C)C)CC2 [Compound 1b] | 750 ± 150 nM | > 3000 nM |  |  |  |  |  |
| 8.8 ± 1.9% | 2.7 ± 1.5% |  | C/C(=C\CC/C(C)=C/CC/C(C)=C/CC[C@]1(C)CCc2cc(O)cc(C)c2O1)CO [Compound 10c] | 150 ± 50 nM | 1260 ± 330 nM |  |  |  |  |  |
| 21.6 ± 2.5% | 1.5 ± 0.4% |  | Cc1c(C)c2c(c(C)c1O)CC[C@@](C)(CCCC(C)CCCC(C)CCCC(C)CO)O2 (stereo partly drawn) [Compound 9a, α-T-13′-CH2OH] | 350 ± 40 nM | 190 ± 50 nM |  |  |  |  |  |
| 13.2 ± 2% | 0.2 ± 0.1% |  | C/C(=C\CC/C(C)=C/CC/C(C)=C/CC[C@]1(C)CCc2c(C)c(O)c(C)c(C)c2O1)CO [Compound 10a] | 110 ± 10 nM | 270 ± 100 nM |  |  |  |  |  |
| 74.9 ± 8% | 6.7 ± 3.1% |  | CC(C)=CCC/C(C)=C/CC/C(C)=C/CC[C@]1(C)CCc2cc(O)cc(C)c2O1 [Compound 6d, δ-tocotrienol] | 170 ± 100 nM | > 3000 nM |  |  |  |  |  |
| 41.4 ± 8% | 6.4 ± 3.2% |  | CC(C)=CCC/C(C)=C/CC/C(C)=C/CC[C@]1(C)CCc2c(C)c(O)cc(C)c2O1 [Compound 6b] | 190 ± 30 nM | 2110 ± 360 nM |  |  |  |  |  |
| 1.1 ± 1.1% | 0% |  | C/C(=C/CC/C(C)=C/CC/C(C)=C/CC[C@]1(C)CCc2cc(O)c(C)c(C)c2O1)CO [Compound 10d] | 120 ± 30 nM | 140 ± 20 nM |  |  |  |  |  |
| 107 ± 3.2% | 43.3 ± 7.2% | 600 ± 250 nM | Cc1cc(O)cc2c1O[C@](C)(CCC[C@H](C)CCC[C@H](C)CCCC(C)C)CC2 [Compound 1d, δ-tocopherol] |  | > 3000 nM |  |  |  |  |  |
| 75.5 ± 4.5% | 16.9 ± 6.6% |  | CC(C)=CCC/C(C)=C/CC/C(C)=C/CC[C@]1(C)CCc2c(C)c(O)c(C)c(C)c2O1 [Compound 6a] |  | > 3000 nM |  |  |  |  |  |
| 78.5 ± 13.6% | 47 ± 4.5% |  | Cc1c(O)cc2c(c1C)O[C@](C)(CCC[C@H](C)CCC[C@H](C)CCCC(C)C)CC2 [Compound 1c] | 910 ± 150 nM | > 3000 nM |  |  |  |  |  |
| 88.6 ± 10.5% | 86.1 ± 8.3% |  | Cc1c(C)c2c(c(C)c1O)CC[C@@](C)(CCC[C@H](C)CCC[C@H](C)CCCC(C)C)O2 [Compound 1a, α-tocopherol] | > 1000 nM | > 3000 nM |  |  |  |  |  |

The remaining lines, values behind:

| Compound | remaining activity at 3 µM (5-LOX [3]; [5]) | remaining activity at 1 µM (5-LOX [4]; [6]) | IC50 (5-LOX [4]) | IC50 (5-LOX [1]) | IC50 (5-LOX [2]) | remaining activity at 1 µM (5-LOX [3]; PMNL, read-out: 5-LOX PMNL residual activity at 1 μM (cells marked b)) | IC50 (5-LOX [3]) | IC50 (5-LOX [4]; [7]) | remaining activity at 1 µM (5-LOX [4]; [8]) | remaining activity at 3 µM (5-LOX [3]; [9]) |
| --- | --- | --- | --- | --- | --- | --- | --- | --- | --- | --- |
| CC(C)=CCC/C(C)=C/CC/C(C)=C/CC[C@]1(C)CCc2cc(O)c(C)c(C)c2O1 [Compound 6c] | 73.5 ± 1.2% | 6.4 ± 3.2% |  | 200 ± 60 nM | > 3000 nM |  |  |  |  |  |
| C/C(=C\CC/C(C)=C/CC[C@]1(C)CCc2cc(OC(=O)CCC(=O)O)cc(C)c2O1)CCC=C(CO)CO [Compound 31, 4-(((R)-2-((3E,7E)-13-Hydroxy-12-(hydroxymethyl)-4,8-dimethyltrideca-3,7,11-trien-1-yl)-2,8-dimethylchroman-6-yl)oxy)-4-oxobutanoic Acid] |  |  |  |  |  | 26.4 ± 6.7% | 450 ± 100 nM | 90 ± 30 nM | 1.1 ± 0.6% |  |
| CC(=O)c1cc2c(C)c3c(c(C)c2oc1=O)CC[C@@](C)(CC/C=C(\C)CC/C=C(\C)CCC=C(CO)CO)O3 [Compound 41, (R)-3-Acetyl-7-((3E,7E)-13-hydroxy-12-(hydroxymethyl)-4,8-dimethyltrideca-3,7,11-trien-1-yl)-5,7,10-trimethyl-8,9-dihydropyrano[2,3-g]chromen-2(7H)-one] |  |  |  |  |  |  | 1250 ± 200 nM | 630 ± 130 nM | 35.1 ± 5.7% | 12.4 ± 0.7% |
| C/C(=C\CC/C(C)=C/CC[C@]1(C)CCc2c(CN3CCOCC3)c(O)cc(C)c2O1)CCC=C(CO)CO [Compound 37, 2-((4E,8E)-11-((R)-6-Hydroxy-2,8-dimethyl-5-(morpholinomethyl)chroman-2-yl)-4,8-dimethylundeca-4,8-dien-1-ylidene)propane-1,3-diol] |  |  |  |  |  |  | 1740 ± 90 nM | 120 ± 30 nM | 3.9 ± 0.6% | 11.3 ± 3.3% |
| Cc1cc(O)cc2c1O[C@](C)(CCCC(C)CCCC(C)CCCC(CO)CO)CC2 (stereo partly drawn) [Compound 26, 2-(11-((R)-6-Hydroxy-2,8-dimethylchroman-2-yl)-4,8-dimethylundecyl)propane-1,3-diol] |  |  |  |  |  |  | > 3000 nM | > 1000 nM | 53.1 ± 7.4% | 81.3 ± 0.7% |
| C/C(=C\CC/C(C)=C/CC[C@]1(C)CCc2c(C)c(O)cc(C)c2O1)CCC=C(CO)CO [Compound 27b] |  |  |  |  |  |  | 100 ± 20 nM | 90 ± 20 nM | 0% | 0.9 ± 0.5% |
| CC(=O)c1cc2c3c(c(C)cc2oc1=O)O[C@](C)(CC/C=C(\C)CC/C=C(\C)CCC=C(CO)CO)CC3 [Compound 42, (R)-2-Acetyl-8-((3E,7E)-13-hydroxy-12-(hydroxymethyl)-4,8-dimethyltrideca-3,7,11-trien-1-yl)-6,8-dimethyl-9,10-dihydropyrano[3,2-f]chromen-3(8H)-one] |  |  |  |  |  |  | 1440 ± 420 nM | 210 ± 20 nM | 23.3 ± 2.3% | 15.3 ± 6.9% |
| C/C(=C\CC/C(C)=C/CC[C@]1(C)CCc2c(CN3CCCCC3)c(O)cc(C)c2O1)CCC=C(CO)CO [Compound 38, 2-((4E,8E)-11-((R)-6-Hydroxy-2,8-dimethyl-5-(piperidin-1-ylmethyl)chroman-2-yl)-4,8-dimethylundeca-4,8-dien-1-ylidene)propane-1,3-diol] |  |  |  |  |  |  | 1950 ± 70 nM | 110 ± 20 nM | 5.1 ± 0.9% | 11.7 ± 1.8% |
| C/C(=C\CC/C(C)=C/CC[C@]1(C)CCc2cc(O)c(C)c(C)c2O1)CCC=C(CO)CO [Compound 27c] |  |  |  |  |  |  | 50 ± 40 nM |  | 0.1 ± 0.1% | 0.8 ± 0.2% |
| C/C(=C\CC/C(C)=C/CC[C@]1(C)CCc2c(CN(C)C)c(O)cc(C)c2O1)CCC=C(CO)CO [Compound 36, 2-((4E,8E)-11-((R)-5-((Dimethylamino)methyl)-6-hydroxy-2,8-dimethylchroman-2-yl)-4,8-dimethylundeca-4,8-dien-1-ylidene)propane-1,3-diol] |  |  |  |  |  |  | > 3000 nM | 110 ± 20 nM | 3.7 ± 0.4% | 63.9 ± 14.4% |
| C/C(=C\CC[C@]1(C)CCc2cc(O)cc(C)c2O1)C(=O)O [Compound 18, (R,E)-5-(6-Hydroxy-2,8-dimethylchroman-2-yl)-2-methylpent-2-enoic Acid] |  |  |  |  |  |  | > 3000 nM | > 1000 nM | 56.4 ± 18.3% | 88.8 ± 6.4% |

Source: PMC8365602 (Journal of Medicinal Chemistry, 2021)
